Test results: article PMC9780942, “Antimicrobial Activity and Immunomodulatory Properties of Acidocin A, the Pediocin-like Bacteriocin with the Non-Canonical Structure” (Membranes, 2022)
Positions of bridges follow the written chain, without caps; N, C: chain ends. No end group written: not given here.

Key:
E. coli XDR CI 1057 = type: cell-based; details: XDR CI 1057, 24 h
Summary of the method: (§1)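 Bacteriocins were two-fold serially diluted in 0.1% BSA and mixed with mid-log bacteria at 10^6 CFU/mL in 2x Mueller-Hinton broth (3% TSB for Listeria), then shaken at 37 °C for 24 h. MIC was the lowest peptide concentration with no visible growth; salt effect was tested in MHB plus 0.9% NaCl.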

M. luteus Ac-2229 = type: cell-based; details: Ac-2229, 24 h
Summary of the method: as §1

B. licheniformis B-511 = type: cell-based; details: 24 h
Summary of the method: as §1

L. lactis MK66 = type: cell-based; details: MK66, 24 h
Summary of the method: as §1

E. coli ATCC 25922 = type: cell-based; details: ATCC 25922, 24 h
Summary of the method: as §1

L. monocytogenes EGD = assay: Agar diffusion (spot-on-lawn) assay; type: cell-based, Listeria monocytogenes; details: 1–10 µg peptide spotted on 3% TSB agar, 37 °C, 24 h
Protocol: Additionally, the activity of bacteriocins against L. monocytogenes EGD was qualitatively determined using agar diffusion (“spot-on-lawn”) assay. An amount of 5 µL of water solutions containing 1–10 µg of purified bacteriocins were applied to agar plates containing 3% TSB medium with mid-log phase culture of L. monocytogenes EGD diluted to a OD600 of about 0.001 (≅7 × 10^5 CFU/mL) and incubated overnight at 37 °C for 24 h. Antibiotic tetracycline (0.5 µg) was used as a positive control. The formation of visible zones of bacterial growth inhibition in places where bacteriocins were added indicated the presence of antimicrobial activity.

L. lactis MK43 = assay: Antibacterial activity assay (MIC), two-fold serial dilutions in liquid medium; type: cell-based; details: MHB, 0.1% BSA, 37 °C, 24 h, no visible growth
Summary of the method: as §1

[1] = Circular dichroism spectroscopy, secondary structure estimation; type: physicochemical; details: calculated from previously published CD spectra

With “TYYGNGVSCNKKGCSVDWGKAISIIGNNSAANLATGGAAGWKS (disulfide 9-14) [Avicin A]” the “Minimum Inhibitory Concentration” value (E. coli XDR CI 1057) was >32 µM, the “Minimum Inhibitory Concentration” value (M. luteus Ac-2229) was >32 µM and the “Minimum Inhibitory Concentration” value (B. licheniformis B-511) was >32 µM. The “Minimum Inhibitory Concentration” value (L. lactis MK66) was >32 µM, the “Minimum Inhibitory Concentration” value (E. coli ATCC 25922) was >32 µM and the “Antimicrobial activity, zones of growth inhibition (qualitative)” value (L. monocytogenes EGD) was “high activity”. For the same sequence, the “Antimicrobial activity, zones of growth inhibition (qualitative)” value (L. monocytogenes EGD; listed as avicin A) was “presence of such activity”, the “Minimum Inhibitory Concentration” value (L. lactis MK43) was >32 µM and the Random ([1]; Aqueous solution) was 39.3%. It also gave a α-Helix ([1]; Aqueous solution) of 5.8%, a β-Sheet ([1]; Aqueous solution) of 32.8% and a β-Turn ([1]; Aqueous solution) of 22.1%. For the same sequence, the Random ([1]; DPC micelles) was 27.8%, the α-Helix ([1]; DPC micelles) was 19.4% and the β-Sheet ([1]; DPC micelles) was 28.6%. It also gave a β-Turn ([1]; DPC micelles) of 21.6%, a Random ([1]; SDS micelles) of 30.4% and a α-Helix ([1]; SDS micelles) of 19.7%. For the same sequence, the β-Sheet ([1]; SDS micelles) was 29.3% and the β-Turn ([1]; SDS micelles) was 23.1%.
